Data from ChEMBL document CHEMBL3885881, “DrugMatrix”.

Organism: Rattus norvegicus
Assay: DrugMatrix - Regimen: Daily Repeat
Type: toxicity, organism-based, Sprague-Dawley
Parameters: regimen Daily Repeat, gender Male, age 6-8 weeks
Conditions: in vivo, po, route oral GAVAGE, vehicle .5 % CMC; for ABSOLUTE BASOPHIL / ABSOLUTE EOSINOPHIL / ABSOLUTE LYMPHOCYTE / ABSOLUTE MONOCYTE / ABSOLUTE SEGMENTED NEUTROPHIL / BASOPHIL / EOSINOPHIL / ERYTHROCYTE COUNT / HEMATOCRIT / HEMOGLOBIN / LEUKOCYTE COUNT / LYMPHOCYTE / MEAN CORPUSCULAR HEMOGLOBIN / MEAN CORPUSCULAR HEMOGLOBIN CONCENTRATION / MEAN CORPUSCULAR VOLUME / MONOCYTE / NEUTROPHIL / NUCLEATED RED BLOOD CELLS / PLATELET COUNT: tissue Blood; for ALANINE AMINOTRANSFERASE / ALBUMIN / ASPARTATE AMINOTRANSFERASE / BLOOD UREA NITROGEN / CARBON DIOXIDE / CHLORIDE / CREATINE PHOSPHOKINASE / CREATININE / GLUCOSE / LACTATE DEHYDROGENASE / LIPASE / PHOSPHORUS / POTASSIUM / SODIUM / TOTAL BILIRUBIN / TOTAL PROTEIN: tissue Plasma
[1] = 16 mg/kg, 72 h, dose level Low, time 3 day
[2] = 16 mg/kg, 120 h, dose level Low, time 5 day
[3] = 2500 mg/kg, 72 h, dose level High, time 3 day
[4] = 2500 mg/kg, 120 h, dose level High, time 5 day

## CC1=C(C(=O)O)N2C(=O)[C@@H](NC(=O)[C@H](N)c3ccccc3)[C@H]2SC1 [CEPHALEXIN ANHYDROUS]
[1]
  ABSOLUTE BASOPHIL: 0 CELLS/uL
  ABSOLUTE EOSINOPHIL: 0 CELLS/uL
  ABSOLUTE LYMPHOCYTE: 17436 CELLS/uL
  ABSOLUTE MONOCYTE: 124 CELLS/uL
  ABSOLUTE SEGMENTED NEUTROPHIL: 706.67 CELLS/uL
  BASOPHIL: 0%
  EOSINOPHIL: 0%
  ERYTHROCYTE COUNT: 5.81 x10E6/uL
  HEMATOCRIT: 35.97%
  HEMOGLOBIN: 13.93 G/DL
  LEUKOCYTE COUNT: 18.27 x10E3/uL
  LYMPHOCYTE: 95.33%
  MEAN CORPUSCULAR HEMOGLOBIN: 24.03 pg
  MEAN CORPUSCULAR HEMOGLOBIN CONCENTRATION: 38.8 G/DL
  MEAN CORPUSCULAR VOLUME: 61.97 fL
  MONOCYTE: 0.67%
  NEUTROPHIL: 4%
  NUCLEATED RED BLOOD CELLS: 0 /100WBC
  PLATELET COUNT: 1279 x10E3/uL
  ALANINE AMINOTRANSFERASE: 50.33 u/L
  ALBUMIN: 4.13 G/DL
  ASPARTATE AMINOTRANSFERASE: 86.67 u/L
  BLOOD UREA NITROGEN: 14.33 mg/dL
  CARBON DIOXIDE: 30 mmol/L
  CHLORIDE: 101 MEQ/L
  CREATINE PHOSPHOKINASE: 208 u/L
  CREATININE: 0.23 mg/dL
  GLUCOSE: 163.33 mg/dL
  LACTATE DEHYDROGENASE: 208.33 u/L
  LIPASE: 9 u/L
  PHOSPHORUS: 13.27 mg/dL
  POTASSIUM: 7.33 MEQ/L
  SODIUM: 146.17 MEQ/L
  TOTAL BILIRUBIN: 0.17 mg/dL
  TOTAL PROTEIN: 5.9 G/DL
[2]
  ABSOLUTE BASOPHIL: 0 CELLS/uL
  ABSOLUTE EOSINOPHIL: 0 CELLS/uL
  ABSOLUTE LYMPHOCYTE: 13406.33 CELLS/uL
  ABSOLUTE MONOCYTE: 44 CELLS/uL
  ABSOLUTE SEGMENTED NEUTROPHIL: 716.33 CELLS/uL
  BASOPHIL: 0%
  EOSINOPHIL: 0%
  ERYTHROCYTE COUNT: 5.62 x10E6/uL
  HEMATOCRIT: 33.87%
  HEMOGLOBIN: 13.33 G/DL
  LEUKOCYTE COUNT: 14.17 x10E3/uL
  LYMPHOCYTE: 94.67%
  MEAN CORPUSCULAR HEMOGLOBIN: 23.63 pg
  MEAN CORPUSCULAR HEMOGLOBIN CONCENTRATION: 39.33 G/DL
  MEAN CORPUSCULAR VOLUME: 60.17 fL
  MONOCYTE: 0.33%
  NEUTROPHIL: 5%
  NUCLEATED RED BLOOD CELLS: 0 /100WBC
  PLATELET COUNT: 900 x10E3/uL
  ALANINE AMINOTRANSFERASE: 49 u/L
  ALBUMIN: 4.2 G/DL
  ASPARTATE AMINOTRANSFERASE: 98 u/L
  BLOOD UREA NITROGEN: 14.67 mg/dL
  CARBON DIOXIDE: 24 mmol/L
  CHLORIDE: 103.33 MEQ/L
  CREATINE PHOSPHOKINASE: 652.67 u/L
  CREATININE: 0.25 mg/dL
  GLUCOSE: 200.67 mg/dL
  LACTATE DEHYDROGENASE: 425.67 u/L
  LIPASE: 9 u/L
  PHOSPHORUS: 13.2 mg/dL
  POTASSIUM: 6.1 MEQ/L
  SODIUM: 146.5 MEQ/L
  TOTAL BILIRUBIN: 0.17 mg/dL
  TOTAL PROTEIN: 6.13 G/DL
[3]
  ABSOLUTE BASOPHIL: 0 CELLS/uL
  ABSOLUTE EOSINOPHIL: 47.67 CELLS/uL
  ABSOLUTE LYMPHOCYTE: 14295 CELLS/uL
  ABSOLUTE MONOCYTE: 55 CELLS/uL
  ABSOLUTE SEGMENTED NEUTROPHIL: 435.67 CELLS/uL
  BASOPHIL: 0%
  EOSINOPHIL: 0.33%
  ERYTHROCYTE COUNT: 5.55 x10E6/uL
  HEMATOCRIT: 35.7%
  HEMOGLOBIN: 14 G/DL
  LEUKOCYTE COUNT: 14.83 x10E3/uL
  LYMPHOCYTE: 96.33%
  MEAN CORPUSCULAR HEMOGLOBIN: 25.23 pg
  MEAN CORPUSCULAR HEMOGLOBIN CONCENTRATION: 39.2 G/DL
  MEAN CORPUSCULAR VOLUME: 64.3 fL
  MONOCYTE: 0.33%
  NEUTROPHIL: 3%
  NUCLEATED RED BLOOD CELLS: 0 /100WBC
  PLATELET COUNT: 1231 x10E3/uL
  ALANINE AMINOTRANSFERASE: 67.33 u/L
  ALBUMIN: 3.93 G/DL
  ASPARTATE AMINOTRANSFERASE: 82.67 u/L
  BLOOD UREA NITROGEN: 16 mg/dL
  CARBON DIOXIDE: 31.67 mmol/L
  CHLORIDE: 100.33 MEQ/L
  CREATINE PHOSPHOKINASE: 209 u/L
  CREATININE: 0.17 mg/dL
  GLUCOSE: 140 mg/dL
  LACTATE DEHYDROGENASE: 154.67 u/L
  LIPASE: 9 u/L
  PHOSPHORUS: 10.93 mg/dL
  POTASSIUM: 6.36 MEQ/L
  SODIUM: 145.43 MEQ/L
  TOTAL BILIRUBIN: 0.2 mg/dL
  TOTAL PROTEIN: 5.67 G/DL
[4]
  ABSOLUTE BASOPHIL: 0 CELLS/uL
  ABSOLUTE EOSINOPHIL: 48.67 CELLS/uL
  ABSOLUTE LYMPHOCYTE: 11635.33 CELLS/uL
  ABSOLUTE MONOCYTE: 0 CELLS/uL
  ABSOLUTE SEGMENTED NEUTROPHIL: 2649.33 CELLS/uL
  BASOPHIL: 0%
  EOSINOPHIL: 0.33%
  ERYTHROCYTE COUNT: 5.85 x10E6/uL
  HEMATOCRIT: 35.6%
  HEMOGLOBIN: 13.87 G/DL
  LEUKOCYTE COUNT: 14.33 x10E3/uL
  LYMPHOCYTE: 81.67%
  MEAN CORPUSCULAR HEMOGLOBIN: 23.8 pg
  MEAN CORPUSCULAR HEMOGLOBIN CONCENTRATION: 38.93 G/DL
  MEAN CORPUSCULAR VOLUME: 61.07 fL
  MONOCYTE: 0%
  NEUTROPHIL: 18%
  NUCLEATED RED BLOOD CELLS: 0 /100WBC
  PLATELET COUNT: 1275.33 x10E3/uL
  ALANINE AMINOTRANSFERASE: 101.33 u/L
  ALBUMIN: 4.23 G/DL
  ASPARTATE AMINOTRANSFERASE: 94.67 u/L
  BLOOD UREA NITROGEN: 18.33 mg/dL
  CARBON DIOXIDE: 28 mmol/L
  CHLORIDE: 105.33 MEQ/L
  CREATINE PHOSPHOKINASE: 302 u/L
  CREATININE: 0.24 mg/dL
  GLUCOSE: 174.67 mg/dL
  LACTATE DEHYDROGENASE: 98.67 u/L
  LIPASE: 9.67 u/L
  PHOSPHORUS: 11.77 mg/dL
  POTASSIUM: 5.92 MEQ/L
  SODIUM: 150.03 MEQ/L
  TOTAL BILIRUBIN: 0.17 mg/dL
  TOTAL PROTEIN: 5.97 G/DL
